# Data published in patent US20240299483A1, “TARGETS AND BIOMARKERS FOR TUMOR MICROENVIRONMENTS” (The Trustees of Indiana University, priority 2023, published 2024).
# Columns and labels:
# PD-L1 = PD-L1 expression in Ly6G+ cells after in vivo CPI-613 treatment, flow cytometry; set-up: species or system mice; settings: 5 mg/kg on days 0, 2, 4, 7; day 8; PD-L1+ cells in Ly6G+CD11c+ cells
# Procedure: FIG. 3J measures PD-L1^+ cells of Ly6G^+ CD11c^+ cells isolated from Lal^+/+ and Lal^−/− mice. Mice received 5 mg/kg CPI-613 on days 0, 2, 4, and 7. On day 8, the percentage of PD-L1^+ cells in Ly6G^+ CD11c^+ cells was measured by flow cytometry analysis.
# (§1) Flow Cytometry Analysis For analyses of percentages of CD11b^+Ly6G^+ (integrin alpha M-positive/Ly6G positive) and Ly6G^+Ly6C^+ (Ly6G positive/lymphocyte antigen 6 C1-positive) cells, single cells harvested from the bone marrow of Lal^+/+ and Lal^−/− mice were stained with APC eFluor 780-conjugated, dye, anti-Ly6G antibody (1A8-Ly6g, cat #47-9668-82), FITC (fluorescein isothiocyanate)-conjugated anti-CD11b antibody (M1/70, cat #11-0112-82), and PE (phycocrythrin)-conjugated anti-Ly6C antibody (HK1.4, cat #12-5932-82) at 4° C. for 15 minutes. All antibodies were acquired from eBioscience, San Diego, CA. For analysis of PD-L1 expression in Ly6G^+ cells, cells were stained with APC eFluor 780-conjugated anti-Ly6G antibody, PE-conjugated anti-CD11c (integrin alpha X) antibody (N418, cat #12-0114-82) (acquired from eBioscience), and PE-Cy7 (cyanine 7)-conjugated anti-PD-L1 antibody (10F.9G2, cat #124314) (acquired from Biolegend) at 4° C. for 15 minutes. Cells were washed with PBS, then were ready for flow cytometry analysis.
# [1] = tested on: Lewis lung carcinoma (LLC) cells; assay: In vitro co-culture of Ly6G+ cells and LLC cells; type: cell-based, murine; settings: Ly6G+ cells pre-treated 10 μM; co-culture 72 hours
# Procedure: (§2) In Vitro Co-Culture of Ly6G^+ and Tumor Cells B16 melanoma or LLC cells were harvested, resuspended, and adjusted to density at 5×10^4 cells/mL. Isolated Ly6G^+ cells with or without 10 μM CPI-613 pre-treatment were prepared at the cell density of 5×10^6 cells/mL. One hundred microliter of Ly6G^+ cells and 100 μL of B16 melanoma/LLC cells were mixed, and seeded into a well of 96-well plates in DMEM supplemented with 10% FBS. Seventy-two hours later, unattached Ly6G^+ cells were removed by washing with PBS, and the number of attached B16 melanoma/LLC cells was counted. Morphologically, Ly6G^+ cells are much smaller than B16 melanoma/LLC cells for exclusion.
# (§3) Small Interfering RNA Transfection Before transfection, Ly6G^+ cells were seeded into 96-well plates at a density of 1×10^6 cells/well. For small interfering RNA (siRNA)-mediated gene knockdown, 50 nmol/L of PDH siRNA (containing a mixture of three independent siRNAs targeting different regions of PDH) or control siRNA was transfected into Ly6G^+ cells with DharmaFECT Transfection Reagent I, chemical formulation for transfection, (acquired from Dharmacon) according to the manufacturer's protocol. After 24 hours of transfection, cells were harvested for further analysis.
# CD11b^+Ly6G^+ cells = assay: CD11b+Ly6G+ population in bone marrow after CPI-613 injection, flow cytometry; type: in vivo; settings: Lal−/− mice, 5 mg/kg on days 0, 2, 4, 7; measured day 8; DMSO control
# Procedure: Mice received 5 mg/kg CPI-613 (PDH inhibitor) on days 0, 2, 4, and 7. On day 8, the CD11b^+Ly6G^+ population in the bone marrow was determined by flow cytometry. DMSO (dimethyl sulfoxide) was used as a control.
# as §1
# B16 melanoma cells [2] = assay: Subcutaneous co-injection of pre-treated Ly6G+ cells with B16 melanoma cells, tumor growth; type: in vivo; settings: Ly6G+ cells pre-treated 10 μM 1 hour, co-injected with B16 melanoma cells into Lal+/+ recipient mice; tumor size at 10 days
# Procedure: Subcutaneous Injection of Tumor Cells into Lal^+/+ Mice To study the effect of Ly6G^+ cells on tumor growth, isolated 1×10^6 Ly6G^+ cells from Lal^+/+ or Lal^−/− mice were pre-treated with DMSO or 10 μM CPI-613 for 1 hour, mixed with 2×10^5 B16 melanoma cells, and the cell mixture was injected subcutaneously at the flank region of Lal^+/+ recipient mice. The tumor growth was monitored twice a weck. The tumor volume (mm^3) was estimated by measuring the maximal length (L) and width (W) of a tumor and calculated using the formula: (length×width^2)/2. For tumor-bearing myeloid-derived suppressor cells (MDSCs) experiments, Lal^+/+ or Lal^−/− mice were injected with 1×10^6 B16 melanoma cells at flank sites on two sides. Fourteen days later, the mice were sacrificed. Tumor tissues were harvested, digested for single cell preparation, and stained for flow cytometry analysis of the CD11b^+Ly6G^+ cells.
# Ly6G^+ cells = assay: Reactive oxygen species (ROS) measurement in Ly6G+ cells by flow cytometry; type: cell-based, mice; settings: CPI-613 treatment; versus Lal+/+ Ly6G+ cells
# Procedure: (§4) Isolation of Bone Marrow Lymphocyte Antigen 6 Member G—Positive (Ly6G^+) Cell Ly6G^+ cells were isolated by magnetic bead sorting. For CPI-613 (also known as Devimistat; a pyruvate dehydrogenase inhibitor) treatment, freshly isolated Ly6G^+ cells were pre-treated with DMSO or 10 μM CPI-613 at 37° C. for 1 hour, and then co-cultured with Cluster of Differentiation 4 Protein-positive […] (CD4^+ T cells) or co-injected with B16 melanoma cells for further analysis.
# Reactive Oxygen Species (ROS) Measurement The ROS level in Ly6G^+ cells was measured by flow cytometry as previously described. Ly6G^+ cells from Lal^+/+ and Lal^−/− mice with or without CPI-613 pre-treatment were collected and stained with APC eFluor 780-conjugated anti-Ly6G antibody, FITC-conjugated anti-CD11b antibody and 2 μmol/L 2′, 7′-dichlorofluorescein diacetate (acquired from Invitrogen, Carlsbad, CA) at 37° C. for 30 minutes. After PBS washing, the ROS level in Ly6G^+ cells was analyzed using an LSRII machine.
# Small Interfering RNA Transfection Before transfection, Ly6G^+ cells were seeded into 96-well plates at a density of 1×10^6 cells/well. […]
# B16 melanoma cells [3] = assay: In vitro co-culture of Ly6G+ cells and B16 melanoma cells; type: cell-based, murine; settings: Ly6G+ cells pre-treated 10 μM; co-culture 72 hours
# Procedure: as §2, §3
# CD4^+ T cells = assay: T cell proliferation assay (CFSE-labeled CD4+ T cells co-cultured with pre-treated Ly6G+ cells); type: cell-based, mice; settings: Ly6G+ cells pre-treated 10 μM, 1 hour; co-culture 4 days; DMSO control
# Procedure: as §4
# T cell Proliferation Assay CD4^+ T cells were isolated from the spleen and labeled with carboxyfluorescein succinimidyl ester (CFSE) as previously described. CFSE-labeled CD4^+ T cells were co-cultured with Ly6G^+ cells in 96-well plates pre-coated with anti-CD3 mAb (2 μg/mL) (145-2C11, cat #553057) and anti-CD28 mAb (5 μg/mL) (37.51, cat #553295) (acquired from BD Biosciences) at 37° C., 5% CO2, for 4 days. The ratio of Ly6G^+ cells to CD4^+ T cells was 1:5. Proliferation of CD4^+ T cells was evaluated as CFSE dilution by flow cytometry analysis.
# [4] = tested on: lysosomal acid lipase (LAL); assay: Human leucocytes incubated with LAL inhibitor, MDSC subsets by flow cytometry; type: cell-based; settings: leucocytes from healthy subjects, 10 μM, 24 hours
# Procedure: Human leucocytes from healthy individuals were incubated with 10 μM Lalistat2, an LAL inhibitor (L) or DMSO (S) for 24 hours; control group (C) were not treated. After 24 hours, cells were analyzed by flow cytometry.
# Human Blood Samples The blood donor characteristics of the human blood samples of normal subjects and non-small-cell lung cancer (NSCLC, at stage III-IV) patients is described in TABLE 8. NSCLC patients were selected by screening with Programmed death-ligand 1 (PD-L1) Tumor Proportion Score (TPS)≥10%. Both normal subjects and NSCLC patients include male and female, White and African American. To inhibit lysosomal acid lipase (LAL) activity, human blood cells from healthy participants had the red blood cells (RBCs) removed with lysis buffer acquired from Biolegend (San Diego, CA); washed with phosphate buffered saline (PBS) by centrifugation at 240×g for 5 minutes at room temperature; and then incubated with 10 μM LAL inhibitor Lalistat2, acquired from Cayman, Ann Arbor, MI) for 24 hours. As a control, human blood cells were incubated with dimethyl sulfoxide (DMSO).
# For flow cytometry analysis of human blood samples, human blood cells had the RBCs removed, washed with PBS, and stained with APC-eFluor 780-conjugated anti-CD11b antibody (ICRF44, cat #47-0118-42), FITC-conjugated anti-CD13 (aminopeptidase N) antibody (WM15, cat #11-0138-42), PE-conjugated anti-CD14 antibody (61D3, cat #12-0149-42), APC-conjugated anti-CD15 (Lewis X) antibody (MMA, cat #17-0158-42), PE-conjugated anti-CD33 antibody (HIM3-4, cat #12-0339-42), PE-Cy7-conjugated anti-HLA-DR (major histocompatibility complex, class II) antibody (L243, cat #25-9952-42) (all acquired from eBioscience) at 4° C. for 15 minutes. Cells were then washed with PBS, fixed with 1% paraformaldehyde, and prepared for flow cytometry analysis. To analyze LAL levels, cells were further fixed and permeabilized using BD Cytofix/Cytoperm Fixation/Permeabilization Kit, cell fixation and permeabilization kit, and incubated with non-fluorescence conjugated anti-LAL antibody at 4° C. overnight. […]
smiles,measurement,setting,value
O=C(O)CCCCC(CCSCc1ccccc1)SCc1ccccc1 (stereo not shown) [CPI-613],PD-L1 expression in Lal−/− Ly6G+ cells,PD-L1,effectively reduced
same,"capability of Lal−/− Ly6G+ cells in promoting tumor cell proliferation, LLC",[1],reduced capabilities
same,Lal−/− CD11b+Ly6G+ cells (percentage in bone marrow),CD11b^+Ly6G^+ cells,reduced
same,capability of Lal−/− Ly6G+ cells in stimulating tumor growth,B16 melanoma cells [2],reduced capabilities
same,overproduction of ROS in Lal−/− CD11b+Ly6G+ cells,Ly6G^+ cells,significantly reversed
same,"capability of Lal−/− Ly6G+ cells in promoting tumor cell proliferation, B16 melanoma",B16 melanoma cells [3],reduced capabilities
same,Lal−/− Ly6G+ cells' suppressive activity on T cell proliferation,CD4^+ T cells,reversed
O=C(Oc1nsnc1N1CCCCC1)N1CCCCC1 [Lalistat2],induction of CD11b+CD15+HLA-DR− MDSC subset,[4],did not reach statistical significance
same,percentage of CD11b+CD13+HLA-DR− MDSC subset,[4],increased
same,percentage of CD11b+CD14+HLA-DR− MDSC subset,[4],increased
